The record followed here is patent EP2386300A1, “Use of dronedarone for the preparation of a medicament for use in the prevention of cardiovascular hospitalization or of mortality in patients having a first recurrence of atrial fibrillation or atrial flutter” (SANOFI, priority 2010, dated 2011).

Structures can show the parent of a compound that is named as a salt.

This test relates to patients having a history of atrial fibrillation or atrial flutter. Kind of test: Prospective, multinational, multicentre, double-blind, placebo-controlled clinical study (ATHENA); analysis restarting the clock at first AF/AFL recurrence. Type of test: in vivo. Here is the method:
More particularly, the effects of dronedarone compared with placebo on cardiovascular (CV) end points were evaluated by restarting the clock at the time of first atrial fibrillation or atrial flutter recurrence detected in a scheduled ECG or requiring cardioversion.
The patients had to have a history of atrial fibrillation or flutter and/or could be in normal sinus rhythm or in atrial fibrillation or flutter at inclusion.
The patient recruitment was carried out by taking into account the following inclusion criteria:
• 1) One of the following risk factors had to be present: • age equal to or greater than 70 years, • hypertension (taking antihypertensives of at least two different classes), • diabetes, • history of cerebral stroke (transient ischemic event or completed cerebral stroke) or of systemic embolism, • left atrial diameter greater than or equal to 50 mm measured by echocardiography, • left ventricular ejection fraction less than 40%, measured by two-dimensional echography; or • age equal to or above 70, or even above 75, possibly combined with at least one of the risk factors below: • o hypertension (taking antihypertensives of at least two different classes), • o diabetes, • o history of cerebral stroke (transient ischemic event or completed cerebral stroke) or of systemic embolism, • o left atrial diameter greater than or equal to 50 mm measured by echocardiography, • o left ventricular ejection fraction less than 40%, measured by two-dimensional echography; • 2) availability of an electrocardiogram carried out during the past 6 months in order to document the presence or the history of atrial fibrillation or flutter; • 3) availability of an electrocardiogram carried out during the past 6 months in order to document the presence or absence of normal sinus rhythm.
• Patients in permanent atrial fibrillation • Patients in unstable hemodynamic condition such as acute pulmonary edema within 12 hours prior to start of study medication; cardiogenic shock; treatment with IV pressor agents; patients on respirator; congestive heart failure of stage NYHA IV within the last 4 weeks; uncorrected, hemodynamically significant primary obstructive valvular disease; hemodynamically significant obstructive cardomyopathy; a cardiac operation or revascularization procedure within 4 weeks preceding randomization • Planned major non-cardiac or cardiac surgery or procedures including surgery for valvular heart disease, coronary artery bypass graft (CABG), percutaneous coronary intervention (PCI), or on urgent cardiac transplantation list • Acute myocarditis or constrictive pericarditis • Bradycardia < 50 bpm and/or PR-interval ≥ 0.28 sec on the last 12-lead ECG. • Significant sinus node disease (documented pause of 3 seconds or more) or 2nd or 3rd degree atrioventricular block (AV-block) unless treated with a pacemaker.
• Plasma potassium < 3.5 mmol/I (as anti-arrhythmic drugs can be arrhythmogenic in patients with hypokalemia, this must be corrected prior to randomization. • A calculated GFR at baseline < 10 ml/min using the Cockroft Gault formula (GFR [ml/min] = (140 - AGE [years] * WEIGHT [kilograms] * CONSTANT / CREATININE [µmol/L], where CONSTANT is 1 for men and 0.85 for women )^i
Treatment was initiated using tablets containing either the placebo or an amount of dronedarone hydrochloride corresponding to 400 mg of dronedarone at a rate of twice a day with the morning and evening meal and more specifically at a rate of one tablet in the morning during or shortly after breakfast and one tablet in the evening during or shortly after dinner.
The anticipated duration of the treatment was variable according to the time at which each patient was included in the study, and could range from a minimum of 12 months for the last patient included up to a maximum corresponding to the entire duration of the study (12 months + duration of inclusion), i.e. approximately 30 months for the first patients included.

Where [1] appears, read: 1 - relative risk, versus placebo, after first AF/AFL recurrence.

Regarding `CCCCc1oc2ccc(NS(C)(=O)=O)cc2c1C(=O)c1ccc(OCCCN(CCCC)CCCC)cc1` [dronedarone hydrochloride], under setting [1], the “reduction in cardiovascular hospitalizations” value was found to be 23%, the “reduction in cardiovascular hospitalizations or deaths” value was found to be 24%, the “reduction in cardiovascular mortality” value came out at 47% and the reduction of death stood at 44%. The cardiovascular deaths (673 treated patients with a first AF/AFL recurrence, placebo 35) is reported as 15 cardiovascular deaths. The “deaths (mortality from any cause)” value (673 treated patients with a first AF/AFL recurrence, placebo 51 deaths) was 23 deaths. For the same molecule, where the note is “673 treated patients with a first AF/AFL recurrence, placebo 288 events”, the “events, cardiovascular hospitalizations” value came to 195 events. In addition, the “events, cardiovascular hospitalizations or mortality (principal judgement criterion)” value (673 treated patients with a first AF/AFL recurrence, placebo 306 events) turned out to be 205 events. Also, where the note is “versus placebo, Cox model, after first AF/AFL recurrence, p = 0.0025”, the “relative risk, cardiovascular hospitalizations or deaths” value was 0.76. For the same molecule, the “relative risk, cardiovascular hospitalizations” value (versus placebo, Cox model, after first AF/AFL recurrence, p = 0.0048) worked out at 0.77. For the same molecule, the “relative risk, death from any cause” value (versus placebo, Cox model, after first AF/AFL recurrence, p = 0.018) worked out at 0.56. Besides, where the note is “versus placebo, Cox model, after first AF/AFL recurrence, p = 0.0342”, the “relative risk, cardiovascular mortality” value was 0.53.

For the molecule `CCCCc1oc2ccc(NS(C)(=O)=O)cc2c1C(=O)c1ccc(OCCCN(CCCC)CCCC)cc1` [dronedarone, 2-n-Butyl-3-[4-(3-di-n-butylaminopropoxy)benzoyl]-5-methylsulphonamidobenzofuran], the “primary composite end point occurred in patients” value (after a first AF recurrence, CV hospitalization or all-cause mortality, placebo 306) turned out to be 205 patients. Moreover, where the note is “after a first AF recurrence, placebo 38.6%”, the “primary composite end point occurred in patients (%)” value worked out at 30.5%. Besides, the “patients hospitalized for worsening heart failure (including pulmonary edema or dyspnea of cardiac origin)” value (after first AF/AFL recurrence, placebo 5.0%) was 3.6%. Besides, where the note is “after first AF/AFL recurrence, placebo 21.2%”, the “patients hospitalized for AF” value turned out to be 15.8%. Also, the “total time spent in hospital” value (all patients with a first AF/AFL recurrence, placebo 1789 nights, P < 0.01) is listed as 1273 nights. For the same molecule, the “percentage of hospitalization time spent in intensive care units” value (compared with the placebo group, P = 0.01, Figure 3) is listed as “lower”. Moreover, the “first AF recurrence” value (percentage of patients with a first AF recurrence, placebo 34.1%) is recorded as 29.3%.
